Measurements reported in patent US20060052432A1, “Pharmaceutical compositions with improved dissolution” (priority 2002, published 2006).
Structures can show the parent of a compound that is named as a salt. Values belong to the compound of their own block, whether it stands above or below them.

Key:
[1] = Administration of celecoxib compositions to dogs (plasma pharmacokinetics); details: single oral dose, 5 mpk, male dogs
[2] = Pharmacokinetic studies in rats, 5 mg/kg oral doses; type: in vivo, male Sprague-Dawley rats; details: gelatin capsule, sodium salt blended 1:4 with polyvinylpyrrolidone, compared with CELEBREX
Procedure: The sodium salt form (from Example 6) was compared with CELEBREX powder in terms of absorption in rats (FIGS. 4A and 4B).
Solids were placed in size 9 gelatin capsules (Torpac) and dosed via gavage needle, followed by oral gavage of 1 mL water. CELEBREX granulation was transferred from commercial 200 mg capsules. The sodium salt was blended with polyvinylpyrrolidone (e.g. PovidoneK30) in a 1:4 mixture. The plots are averages of plasma levels at each of the time points from plasma of 5 rats.

[3] = commercially available neutral form; cited from earlier work
[4] = pKa; type: physicochemical
[5] = Solubility of celecoxib sodium salt in the presence of polyvinylpyrrolidone; type: physicochemical; details: added to aqueous PVP, or water added to dry blend with PVP
[6] = Solubility in water; type: physicochemical
[7] = according to WO 01/78724; cited from earlier work
[8] = In vitro dissolution studies in simulated gastric fluid; type: physicochemical
Procedure: 1. […] The celecoxib salt was ground using mortar and pestle until fine powder was formed. […] 2. Formulation Preparation • a. Fresh PLURONIC excipient was dispensed into a mortar. If initially a solid at room temperature, the PLURONIC was ground until a smooth powder was formed. • b. If HPC was to be added, it was dispensed after the PLURONIC excipient. […] 3. Dissolution Assay • a. A water bath was set up at 37 degrees C. • b. Simulated gastric fluid in the fasted state (SGF) was prepared at pH 1.7 and diluted five times with deionized water. […] The simulated gastric fluid was diluted five times to simulate the effect of drinking a glass of water with the medication. The SGF was pre-heated to 37 degrees C. • c. The formulation was placed in a 20 mL scintillation vial. • d. A 10 mm x 3 mm stir bar was added. • e. Diluted SGF was added to the formulation. […] The vial was placed in the water bath and allowed to stir. • g. […] The first ⅔ of filtrate was discarded as waste and the last ⅓ was collected into an eppendorf tube. 0.1 mL of the collected filtrate was immediately transferred to an autosampler vial and diluted ten times with 0.9 mL of methanol. The autosampler vials were crimp sealed and submitted for content analysis using high performance liquid chromatography with ultraviolet detection. In Vitro Dissolution Studies of PLURONIC Excipients - Results: […]

- maximum blood serum concentration reached faster than for celecoxib [1]: 40%
- peak level of the drug in plasma [2]: faster peak level of the drug in plasma
SMILES: Cc1ccc(-c2cc(C(F)(F)F)nn2-c2ccc(S(N)(=O)=O)cc2)cc1 [celecoxib sodium salt, sodium salt of 4-[5-(4-methylphenyl)-3-(trifluoromethyl)-1H-pyrazol-1-yl]benzenesulfonamide]

- pKa [4]: ~11
SMILES: Cc1onc(-c2ccccc2)c1-c1ccc(S(N)(=O)=O)cc1 [Valdecoxib, 4-(5-methyl-3-phenyl-4-isoxazolyl)benzene sulfonamide]
- solubility in water (in words) [3]: essentially insoluble in water

- dissolution in aqueous polyvinylpyrrolidone [5]: did not dissolve
- solubility [6]: < 1 µg/mL
SMILES: Cc1ccc(-c2cc(C(F)(F)F)nn2-c2ccc(S(N)(=O)=O)cc2)cc1 [celecoxib, 4-[5-(4-methylphenyl)-3-(trifluoromethyl)-1H-pyrazol-1-yl]benzenesulfonamide]
- ability to be maintained as a supersaturated solution [6]: cannot be maintained as a supersaturated solution for any appreciable time
- solubility in Transcutol P [7]: 350 mg/g
- solubility in water (in words) [3]: essentially insoluble in water

SMILES: CCOCCOCCO [Transcutol P]
- effect on dissolution of celecoxib free acid [8]: does not enhance dissolution of the free acid
